Laboratory results published in patent publication US11412737B2, “Mixtures of beflubutamid or optically enriched forms thereof with a second herbicide” (FMC Corporation, priority 2016, dated 2022).

Experiments:
[1] = test system: Common chickweed (STEME); experiment: pre-emergence test, weed control; assay type: in vivo, Stellaria media; conditions: pre-emergent, 28 DAT; BFL at 187.5 g, PYX at 90 g, combination of both
Procedure: (§1) Test compositions containing the test compounds were diluted with water to provide the appropriate test rate concentrations.
(§2) For pre-emergence testing, four disposable fiber flats (6 inch by 10 inch) for each rate of application of each herbicide solution were filled with top soil, to which seeds of each species were planted in furrows made by a template pressed on the top of the soil. The furrows were covered with soil after planting the seed and were watered well before application of the test compounds.
Fiber flats designated for treatment were placed in a spray chamber having a static platform and a movable sprayer and the height of the spray nozzle was 10.5 inches above the soil level. Once the sprayer was calibrated using water for spray volume of 30 gallons per acre, flats were sprayed with sprayer at a speed to receive a coverage equivalent of 30 gallons per acre. […]
The control of weeds was evaluated in each experimental test at 21 for wheat and 28 days after treatment (DAT) for all species. Data were analyzed using Minitab software at 95% confidence interval. […] Percent control was determined by a method similar to the 0 to 100 rating system disclosed in “Research Methods in Weed Science,” 2nd ed., B. Truelove, Ed.; Southern Weed Science Society; Auburn University, Auburn, Ala., 1977. […]

[2] = test system: Palmer amaranth (AMAPA); experiment: pre-emergence test, weed control; assay type: in vivo, Amaranthus palmeri; conditions: pre-emergent, 28 DAT; for control of Palmer amaranth (AMAPA): BFL at 125 g/ha, DCI at 125 g/ha, combination of both; for percentage of weed control, AMAPA: (−)-BFL >95% e.e., rate g ai/ha by row: r6 62, r7 125, r8 125, r9 250, r10 445, r11 890, r12 45, r13 90, r14 62+125, r15 125+125, r16 62+250, r17 125+250, r18 62+445, r19 125+445, r20 62+890, r21 125+890, r22 62+45, r23 125+45, r24 62+90, r25 125+90
Procedure: as §1, §2
(§3) Fiber flats designated for treatment were placed in a spray chamber having a static platform and a movable sprayer and the height of the spray nozzle was 10.5 inches above the soil level. Once the sprayer was calibrated using water for spray volume of 30 gallons per acre, flats were sprayed with sprayer at a speed to receive a coverage equivalent of 30 gallons per acre. The application rates are those shown in the Tables below for the individual herbicidal solutions and the herbicide compositions of this invention. The pre-emergence flats were immediately placed in the greenhouse and watered lightly after treatment. Thereafter they were regularly watered and fertilized for the duration of the test.
(§4) The control of weeds was evaluated in each experimental test at 21 for wheat and 28 days after treatment (DAT) for all species. Data were analyzed using Minitab software at 95% confidence interval. The results, shown as an average of the replications, were compared with results observed in untreated control flats in the same tests. Percent control was determined by a method similar to the 0 to 100 rating system disclosed in “Research Methods in Weed Science,” 2nd ed., B. Truelove, Ed.; Southern Weed Science Society; Auburn University, Auburn, Ala., 1977. The rating system is as follows in Table 1.

[3] = test system: Jimsonweed (DATST); experiment: pre-emergence test, weed control; assay type: in vivo, Datura stramonium; conditions: pre-emergent, 28 DAT, combination of both
Procedure: as §1, §2, §3, §4

[4] = test system: Wild oat (AVEFA); experiment: pre-emergence test, weed control; assay type: in vivo, Avena fatua; conditions: pre-emergent, 21 DAT, rate g ai/ha by row: r4 94, r5 125, r6 250, r7 125, r8 250, r9 500, r10 94+125, r11 125+125, r12 94+250, r13 125+250, r14 94+500, r15 125+500
Procedure: as §1, §2, §3, §4

[5] = test system: Barnyardgrass (ECHCG); experiment: post-emergence test, weed control; assay type: in vivo, Echinochloa crus-galli; conditions: post-emergent, 28 DAT; for control of barnyardgrass (ECHCG): BFL at 125 g/ha, DCI at 125 g/ha, combination of both; for percentage of weed control, ECHCG: height 8-9 cm, rate g ai/ha by row: r7 94, r8 125, r9 188, r10 125, r11 250, r12 94+125, r13 125+125, r14 188+125, r15 94+250, r16 125+250, r17 188+250
Procedure: as §1
(§5) For post-emergence testing, seeds of each species for each rate of application of each herbicide solution were planted in 7.5 cm×7.5 cm plastic pots filled with potting soil. The seeds were germinated and the resulting plants were allowed to grow in a greenhouse until they reached a growth stage, such as height, suitable for testing. […] Pots of post-emergent treated plants were returned to the greenhouse and not watered for 24 hours after treatment. Thereafter they were regularly watered and fertilized for the duration of the test.
(§6) The control of weeds was evaluated in each experimental test at 21 for wheat and 28 days after treatment (DAT) for all species. […] The rating system is as follows in Table 1.

[6] = test system: Common chickweed (STEME); experiment: post-emergence test, weed control; assay type: in vivo, Stellaria media; conditions: post-emergent, 28 DAT
Procedure: as §1, §5, §6

[7] = test system: Italian ryegrass (LOLMU); experiment: post-emergence test, weed control; assay type: in vivo, Lolium perenne. multiflorum; conditions: post-emergent, 28 DAT; for percentage of weed control, LOLMU: height 5-6 cm, rate g ai/ha by row: r25 94, r26 125, r27 188, r28 125, r29 250, r30 94+125, r31 125+125, r32 188+125, r33 94+250, r34 125+250, r35 188+250; for control of Italian rygrass (LOLMU): combination of both
Procedure: as §1
(§7) For post-emergence testing, seeds of each species for each rate of application of each herbicide solution were planted in 7.5 cm×7.5 cm plastic pots filled with potting soil. The seeds were germinated and the resulting plants were allowed to grow in a greenhouse until they reached a growth stage, such as height, suitable for testing. Treatments were applied using compressed air in a track spray chamber at 30 gallons/acre (280 L/ha) using a TeeJet 8001E nozzle at 40 psi (2.76 bars). Pots of post-emergent treated plants were returned to the greenhouse and not watered for 24 hours after treatment. Thereafter they were regularly watered and fertilized for the duration of the test.
as §4

[8] = test system: Wild oat (AVEFA); experiment: post-emergence test, weed control; assay type: in vivo, Avena fatua; conditions: post-emergent, 28 DAT; for percentage of weed control, AVEFA: height 11 cm, rate g ai/ha by row: r25 94, r26 125, r27 188, r28 125, r29 250, r30 94+125, r31 125+125, r32 188+125, r33 94+250, r34 125+250, r35 188+250; for control of wild oats (AVEFA): DCI at 250 g/ha
Procedure: as §1, §7, §4

[9] = test system: Chinese sprangletop (LEFCH); experiment: post-emergence test, weed control; assay type: in vivo; conditions: post-emergent, 28 DAT, height ≤0.5 cm, rate g ai/ha by row: r7 94, r8 125, r9 188, r10 125, r11 250, r12 94+125, r13 125+125, r14 188+125, r15 94+250, r16 125+250, r17 188+250
[10] = test system: Marestail (horsetail) (ERICA); experiment: post-emergence test, weed control; assay type: in vivo; conditions: post-emergent, 28 DAT, height 1 cm (3-5 rosette); rate g ai/ha by row: r25 94, r26 125, r27 188, r28 125, r29 250, r30 94+125, r31 125+125, r32 188+125, r33 94+250, r34 125+250, r35 188+250
[11] = COC 1%, rate g ai/ha by row: r5 94, r6 125, r7 250, r8 1.25, r9 2.5, r10 5, r11 94+1.25, r13 125+1.25, r15 94+2.5, r17 125+2.5, r19 94+5, r21 125+5
[12] = BFL at 188 g/ha, DCI at 125 g/ha
[13] = DCI at 250 g/ha, BFL at 125 g/ha
[14] = BFL at 125 g/ha, combination of both
[15] = BFL at 188 g/ha, combination of both

## CCC(Oc1ccc(F)c(C(F)(F)F)c1)C(=O)NCc1ccccc1 (racemic) [BFL, 2-[4-fluoro-3-(trifluoromethyl)phenoxy]-N-(phenylmethyl)butanamide]
[1]
  control of common chickweed: 6%
[2]
  control of Palmer amaranth (AMAPA): 69%
[3]; BFL at 62.5 g, PTX at 90 g
  control of jimsonweed: 4%
[3]; BFL at 187.5 g, PYX at 90 g
  control of jimsonweed: 30%
[4]; 94 g ai/ha
  percentage of weed control, Wild Oat AVEFA: 10%
[4]; 125 g ai/ha
  percentage of weed control, Wild Oat AVEFA: 9%
[5]; [11]
  percentage of weed control, Barnyardgrass ECHCG: 5%
[5]
  control of barnyardgrass (ECHCG): 6%
[6]; [11]
  percentage of weed control, Common chickweed STEME: 5%
[6]; BFL at 187.5 g, PYX at 45 g, combination of both
  control of common chickweed: 16%
[7]
  percentage of weed control, LOLMU: 0%
[7]; [12]
  control of Italian rygrass (LOLMU): 0%
[7]; [13]
  control of Italian rygrass (LOLMU): 0%
[8]; 94 g ai/ha
  percentage of weed control, AVEFA: 0%
[8]; 188 g ai/ha
  percentage of weed control, AVEFA: 5%
[8]; [14]
  control of wild oats (AVEFA): 0%
[8]; BFL at 187.5 g, PYX at 90 g, combination of both
  control of wild oats: 15%
[8]; [15]
  control of wild oats (AVEFA): 5%

## CC1(C)CON(Cc2ccc(Cl)cc2Cl)C1=O [DCI, 2-(2,4-dichlorophenyl)methyl-4,4-dimethyl-3-isoxazolidinone]
[2]; 125 g ai/ha
  percentage of weed control, AMAPA: 94%
[2]; 250 g ai/ha
  percentage of weed control, AMAPA: 99%
[2]
  control of Palmer amaranth (AMAPA): 30%
[5]; 125 g ai/ha
  percentage of weed control, ECHCG: 74%
[5]; 250 g ai/ha
  percentage of weed control, ECHCG: 69%
[5]
  control of barnyardgrass (ECHCG): 74%
[7]; 125 g ai/ha
  percentage of weed control, LOLMU: 0%
[7]; 250 g ai/ha
  percentage of weed control, LOLMU: 9%
[7]; [12]
  control of Italian rygrass (LOLMU): 0%
[7]; [13]
  control of Italian rygrass (LOLMU): 9%
[8]; 125 g ai/ha
  percentage of weed control, AVEFA: 60%
[8]; 250 g ai/ha
  percentage of weed control, AVEFA: 61%
[8]; [14]
  control of wild oats (AVEFA): 61%
[8]; [15]
  control of wild oats (AVEFA): 61%
[9]; 125 g ai/ha
  percentage of weed control, LEFCH: 89%
[9]; 250 g ai/ha
  percentage of weed control, LEFCH: 79%
[10]
  percentage of weed control, ERICA: 0%
